Data reported in article PMC3735840 (ACS chemical biology, 2013).

Legend:
C=C(OP(=O)(O)O)C(=O)O = test: steady-state enzyme kinetics of the R465A EIC mutant with PEP; assay type: biochemical, Escherichia coli; details: Mg2+ active site of the C-terminal domain
enzyme I (EI) [1] = target: enzyme I (EI) (Escherichia coli, UniProt P08839); test: NMR chemical shift titration; assay type: binding
enzyme I (EI) [2] = target: enzyme I (EI) (Escherichia coli, UniProt P08839, R465A); test: NMR chemical shift titration; assay type: binding

Compound | Km (C=C(OP(=O)(O)O)C(=O)O) | Kd (enzyme I (EI) [1]) | Kd (enzyme I (EI) [2])
enzyme I (EI) (Escherichia coli K-12; R465A) | 1600 ± 400 µM | – | –
O=C(O)CCC(=O)C(=O)O [αKG, α-ketoglutarate] | – | ~2.2 mM | ~6.7 mM
